Tests used:
human recombinant Top1 = human recombinant Top1 (Homo sapiens (Human), UniProt P11387); assay: Topoisomerase I-mediated DNA cleavage reactions; conditions: for Top1, compound-induced DNA cleavage due to Top1 inhibition: semiquantitative scale relative to 1 μM camptothecin (90) or MJ-III-65 (91)
Experimental: Topoisomerase I-Mediated DNA Cleavage Reactions.
DNA cleavage reactions were prepared as previously reported with the exception of the DNA substrate. […] Unincorporated [^32P]dGTP was removed using mini Quick Spin DNA columns (Roche, Indianapolis, Ind.), and the eluate containing the 3′-end-labeled DNA substrate was collected. Approximately 2 nM radiolabeled DNA substrate was incubated with recombinant Top1 in 20 μL of reaction buffer [10 mM Tris-HCl (pH 7.5), 50 mM KCl, 5 mM MgCl2, 0.1 mM EDTA, and 15 μg/mL BSA] at 25° C. for 20 min in the presence of various concentrations of compounds. The reactions were terminated by adding SDS (0.5% final concentration) followed by the addition of two volumes of loading dye (80% formamide, 10 mM sodium hydroxide, 1 mM sodium EDTA, 0.1% xylene cyanol, and 0.1% bromphenol blue). Aliquots of each reaction mixture were subjected to 20% denaturing PAGE. Gels were dried and visualized by using a phosphoimager and ImageQuant software (Molecular Dynamics).
Top1 reactions were performed as recently described. […] The reactions were terminated by adding SDS (0.5% final concentration) followed by the addition of two volumes of loading dye (80% formamide, 10 mM sodium hydroxide, 1 mM sodium EDTA, 0.1% xylene cyanol, and 0.1% bromphenol blue). Reactions were subjected to 20% denaturing PAGE. Gels were dried and visualized by using a Typhoon 8600 and ImageQuant software (Molecular Dynamics).

recombinant human Tdp1 = recombinant human Tdp1 (Homo sapiens (Human), UniProt Q9NUW8); assay: Gel-based assay measuring the inhibition of recombinant Tdp1; type: biochemical; conditions: for IC50: determined by duplicate, read-out: Tdp1 (semiquantitative IC50 scale); for Tdp1 inhibitory activity (in words): recombinant Tdp1
Experimental: Tdp1 inhibitory activity was measured by the drug's ability to inhibit the hydrolysis of the phosphodiester linkage between tyrosine and the 3′-end of the DNA substrate, and to prevent the generation of an oligonucleotide with a free 3′-phosphate (N14P). Therefore, the disappearance of the gel band for N14P indicated Tdp1 inhibition.
Gel-based Assay Measuring the Inhibition of Recombinant Tdp1.
A 5′-[^32P]-labeled single-stranded DNA oligonucleotide containing a 3′-phosphotyrosine (N14Y) was generated as described by Dexheimer et al. The DNA substrate was then incubated with 5 pM recombinant Tdp1 in the absence or presence of inhibitor for 15 min at room temperature in a buffer containing 50 mM Tris HCl, pH 7.5, 80 mM KCl, 2 mM EDTA, 1 mM DTT, 40 μg/ml BSA and 0.01% Tween-20. […] Gel images were scanned using a Typhoon 8600 (GE Healthcare) and densitometric analyses were performed using the ImageQuant software (GE Healthcare).

[1] = test system: all human cancer cell lines successfully tested; assay: NCI screen, mean graph midpoint (MGM) for growth inhibition; type: cell-based; conditions: Homo sapiens, read-out: MGM (μM)

Chain of recombinant human Tdp1 (Q9NUW8 whole entry): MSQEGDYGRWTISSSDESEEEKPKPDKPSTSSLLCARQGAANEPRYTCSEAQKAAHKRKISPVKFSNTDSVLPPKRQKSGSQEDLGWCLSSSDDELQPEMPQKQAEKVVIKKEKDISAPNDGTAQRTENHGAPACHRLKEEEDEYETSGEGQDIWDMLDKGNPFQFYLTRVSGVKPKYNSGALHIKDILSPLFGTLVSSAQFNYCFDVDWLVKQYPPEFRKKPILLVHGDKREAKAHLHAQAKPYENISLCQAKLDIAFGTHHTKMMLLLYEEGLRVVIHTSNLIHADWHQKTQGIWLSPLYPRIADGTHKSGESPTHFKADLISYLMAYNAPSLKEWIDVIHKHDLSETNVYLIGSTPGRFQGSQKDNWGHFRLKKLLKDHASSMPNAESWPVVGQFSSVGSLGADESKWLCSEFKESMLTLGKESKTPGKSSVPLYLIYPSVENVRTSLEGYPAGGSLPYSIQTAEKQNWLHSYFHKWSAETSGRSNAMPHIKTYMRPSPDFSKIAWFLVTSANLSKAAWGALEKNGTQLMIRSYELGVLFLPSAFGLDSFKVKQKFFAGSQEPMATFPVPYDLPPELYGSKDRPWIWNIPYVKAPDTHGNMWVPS
Chain of human recombinant Top1 (P11387 whole entry): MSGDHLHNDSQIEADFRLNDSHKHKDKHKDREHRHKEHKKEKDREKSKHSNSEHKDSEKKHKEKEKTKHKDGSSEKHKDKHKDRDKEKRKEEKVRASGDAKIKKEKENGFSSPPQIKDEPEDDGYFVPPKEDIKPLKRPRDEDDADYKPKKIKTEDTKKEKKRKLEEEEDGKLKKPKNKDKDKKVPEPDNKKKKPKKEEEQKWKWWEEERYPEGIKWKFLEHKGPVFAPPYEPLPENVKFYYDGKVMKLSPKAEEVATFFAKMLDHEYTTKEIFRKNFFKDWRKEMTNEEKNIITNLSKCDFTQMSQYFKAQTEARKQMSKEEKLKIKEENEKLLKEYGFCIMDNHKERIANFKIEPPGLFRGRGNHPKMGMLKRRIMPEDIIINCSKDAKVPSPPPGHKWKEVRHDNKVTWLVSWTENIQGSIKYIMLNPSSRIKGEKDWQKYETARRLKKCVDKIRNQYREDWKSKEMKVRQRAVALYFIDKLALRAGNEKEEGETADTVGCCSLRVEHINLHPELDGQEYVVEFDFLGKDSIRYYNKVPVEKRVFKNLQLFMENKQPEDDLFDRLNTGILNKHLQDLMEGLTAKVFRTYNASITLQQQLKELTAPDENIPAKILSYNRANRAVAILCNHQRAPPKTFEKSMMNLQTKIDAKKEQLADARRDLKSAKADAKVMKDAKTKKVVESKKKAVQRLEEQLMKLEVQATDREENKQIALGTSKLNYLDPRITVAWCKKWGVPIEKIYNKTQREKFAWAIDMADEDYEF

SMILES | Top1, compound-induced DNA cleavage due to Top1 inhibition (human recombinant Top1) | other results
Cl.NCCCn1c2c(c3ccc(NC(=O)C(=O)O)cc3c1=O)C(=O)c1ccccc1-2 [Compound 32 of (B), 2-[(6-(3-Aminopropyl)-5,11-dioxo-6,11-dihydro-5H-indeno[1,2-c]isoquinolin-3-yl)amino]-2-oxoacetic Acid Hydrochloride] | + | –
COC(=O)CC(=O)Nc1ccc2c3c(n(CCCNC(=O)OC(C)(C)C)c(=O)c2c1)-c1ccccc1C3=O [Compound 18 of (B), Methyl 3-[(6-(3-((tert-Butoxycarbonyl)amino)propyl)-5,11-dioxo-6,11-dihydro-5H-indeno[1,2-c]isoquinolin-3-yl)amino]-3-oxopropanoate] | 0 | IC50 (recombinant human Tdp1): > 111 µM
CC(C)(C)OC(=O)NCCCn1c2c(c3ccc(NCC(=O)O)cc3c1=O)C(=O)c1ccccc1-2 [Compound 42 of (B), 2-((6-(3-((tert-Butoxycarbonyl)amino)propyl)-5,11-dioxo-6,11-dihydro-5H-indeno[1,2-c]isoquinolin-3-yl)amino)acetic Acid] | 0 | Tdp1 inhibitory activity (in words) (recombinant human Tdp1): inactivity
Cl.NCCCn1c2c(c3ccc(NC(=O)CC(=O)O)cc3c1=O)C(=O)c1ccccc1-2 [Compound 33 of (B), 3-[(6-(3-Aminopropyl)-5,11-dioxo-6,11-dihydro-5H-indeno[1,2-c]isoquinolin-3-yl)amino]-3-oxopropanoic Acid Hydrochloride] | + | –
Cc1ccc(S(=O)(=O)OCCCCCCCn2c3c(c4ccccc4c2=O)C(=O)c2ccccc2-3)cc1 [Compound 29, 7-(5,11-Dioxo-5H-indeno[1,2-c]isoquinolin-6(11H)-yl)heptyl-4-methyl-benzenesulfonate] | – | Tdp1 inhibitory activity (in words) (recombinant human Tdp1): weakly active
Cn1c2c(c3ccc(NCC(=O)O)cc3c1=O)C(=O)c1ccccc1-2 [Compound 41 of (B), 2-[(6-Methyl-5,11-dioxo-6,11-dihydro-5H-indeno[1,2-c]isoquinolin-3-yl)-amino]acetic Acid] | 0 | Tdp1 inhibitory activity (in words) (recombinant human Tdp1; listed as 41): inactivity
COC(=O)CCC(=O)Nc1ccc2c3c(n(C)c(=O)c2c1)-c1ccccc1C3=O [Compound 11 of (B), Methyl 4-[(6-Methyl-5,11-dioxo-6,11-dihydro-5H-indeno[1,2-c]isoquinolin-3-yl)amino]-4-oxobutanoate] | (+) | –
N#Cc1ccc2c3c(n(CCCN4CCOCC4)c(=O)c2c1)-c1ccccc1C3=O [Compound 73] | ++ | IC50 (recombinant human Tdp1): > 111 µM
COc1ccc2c(c1)-c1c(c3ccc([N+](=O)[O-])cc3c(=O)n1CCCBr)C2=O [Compound 49 of (B), 6-(3-Bromopropyl)-5,6-dihydro-8-methoxy-3-nitro-5,11-dioxo-11H-indeno[1,2-c]isoquinoline] | +++ | Tdp1 inhibitory activity (in words) (recombinant human Tdp1): very weak or inactive
COC(=O)CCCCC(=O)Nc1ccc2c3c(n(C)c(=O)c2c1)-c1ccccc1C3=O [Compound 13 of (B), Methyl 6-[(6-Methyl-5,11-dioxo-6,11-dihydro-5H-indeno[1,2-c]isoquinolin-3-yl)amino]-6-oxohexanoate] | 0 | –
Cl.NCCCn1c2c(c3ccc(NC(=O)CCCC(=O)O)cc3c1=O)C(=O)c1ccccc1-2 [Compound 35 of (B), 5-[(6-(3-Aminopropyl)-5,11-dioxo-6,11-dihydro-5H-indeno[1,2-c]isoquinolin-3-yl)amino]-5-oxopentanoic Acid Hydrochloride] | 0 | –
CC(C)(C)OC(=O)NCCCn1c2c(c3ccc(NC(=O)CCCCC(=O)O)cc3c1=O)C(=O)c1ccccc1-2 [Compound 31 of (B), 6-[(6-(3-((tert-Butoxycarbonyl)amino)propyl)-5,11-dioxo-6,11-dihydro-5H-indeno[1,2-c]isoquinolin-3-yl)amino]-6-oxohexanoic Acid] | (+) | –
CCOC(=O)CNc1ccc2c3c(n(C)c(=O)c2c1)-c1ccccc1C3=O [Compound 38 of (B), Ethyl 2-[(6-Methyl-5,11-dioxo-6,11-dihydro-5H-indeno[1,2-c]isoquinolin-3-yl)amino]acetate] | 0 | Tdp1 inhibitory activity (in words) (recombinant human Tdp1; listed as 38): inactivity
COC(=O)CCCC(=O)Nc1ccc2c3c(n(C)c(=O)c2c1)-c1ccccc1C3=O [Compound 12 of (B), Methyl 5-[(6-Methyl-5,11-dioxo-6,11-dihydro-5H-indeno[1,2-c]isoquinolin-3-yl)amino]-5-oxopentanoate] | + | –
COC(=O)CCC(=O)Nc1ccc2c3c(n(CCCNC(=O)OC(C)(C)C)c(=O)c2c1)-c1ccccc1C3=O [Compound 19 of (B), Methyl 4-[(6-(3-((tert-Butoxycarbonyl)amino)propyl)-5,11-dioxo-6,11-dihydro-5H-indeno[1,2-c]isoquinolin-3-yl)amino]-4-oxobutanoate] | 0 | IC50 (recombinant human Tdp1): > 111 µM
COc1ccc2c(c1)-c1c(c3ccc([N+](=O)[O-])cc3c(=O)n1CCCN1CCOCC1)C2=O [Compound 53 of (B), 8-Methoxy-6-(3-morpholinopropyl)-3-nitro-5H-indeno[1,2-c]isoquinoline-5,11(6H)-dione] | ++ | Tdp1 inhibitory activity (in words) (recombinant human Tdp1): very weak or inactive
CC(C)(C)OC(=O)NCCCn1c2c(c3ccc(NC(=O)CCCC(=O)O)cc3c1=O)C(=O)c1ccccc1-2 [Compound 30 of (B), 5-[(6-(3-((tert-Butoxycarbonyl)amino)propyl)-5,11-dioxo-6,11-dihydro-5H-indeno[1,2-c]isoquinolin-3-yl)amino]-5-oxopentanoic Acid] | 0 | IC50 (recombinant human Tdp1): > 111 µM
O=C1c2ccccc2-c2c1c1ccccc1c(=O)n2CCCl [Compound 30, 6-(2-Chloroethyl)-5H-indeno[1,2-c]isoquinoline-5,11(6H)-dione] | – | Tdp1 inhibitory activity (in words) (recombinant human Tdp1): inactive
CC(C)(C)OC(=O)NCCCn1c2c(c3ccc(NC(=O)CCC(=O)O)cc3c1=O)C(=O)c1ccccc1-2 [Compound 29 of (B), 4-[(6-(3-((tert-Butoxycarbonyl)amino)propyl)-5,11-dioxo-6,11-dihydro-5H-indeno[1,2-c]isoquinolin-3-yl)amino]-4-oxobutanoic Acid] | (+) | IC50 (recombinant human Tdp1): 37 to 111 µM
N#Cc1ccc2c3c(n(CCCn4ccnc4)c(=O)c2c1)-c1ccccc1C3=O [Compound 72] | ++ | IC50 (recombinant human Tdp1): > 111 µM
COC(=O)CCC(=O)Nc1ccc2c3c(n(CCCN)c(=O)c2c1)-c1ccccc1C3=O [Compound 24 of (B), Methyl 4-[(6-(3-Aminopropyl)-5,11-dioxo-6,11-dihydro-5H-indeno[1,2-c]isoquinolin-3-yl)amino]-4-oxobutanoate] | (+) | –
COC(=O)C(=O)Nc1ccc2c3c(n(C)c(=O)c2c1)-c1ccccc1C3=O [Compound 9 of (B), Methyl 2-[(6-Methyl-5,11-dioxo-6,11-dihydro-5H-indeno[1,2-c]isoquinolin-3-yl)amino]-2-oxoacetate] | 0 | –
Cl.NCCCn1c2c(c3ccc(NC(=O)CCCCC(=O)O)cc3c1=O)C(=O)c1ccccc1-2 [Compound 36 of (B), 6-[(6-(3-Aminopropyl)-5,11-dioxo-6,11-dihydro-5H-indeno[1,2-c]isoquinolin-3-yl)amino]-6-oxohexanoic Acid Hydrochloride] | + | –
CS(=O)(=O)NCCCCCCCn1c2c(c3ccccc3c1=O)C(=O)c1ccccc1-2 [Compound 85] | +++ | Top1 inhibition (in words) (human recombinant Top1): active; suppression of Top1-mediated DNA cleavage at high drug concentration (human recombinant Top1; high concentration of 100 μM): complete suppression
Cl.NCCCn1c2c(c3ccc(NC(=O)CCC(=O)O)cc3c1=O)C(=O)c1ccccc1-2 [Compound 34 of (B), 4-[(6-(3-Aminopropyl)-5,11-dioxo-6,11-dihydro-5H-indeno[1,2-c]isoquinolin-3-yl)amino]-4-oxobutanoic Acid Hydrochloride] | + | –
COC(=O)CC(=O)Nc1ccc2c3c(n(C)c(=O)c2c1)-c1ccccc1C3=O [Compound 10 of (B), Methyl 3-[(6-Methyl-5,11-dioxo-6,11-dihydro-5H-indeno[1,2-c]isoquinolin-3-yl)amino]-3-oxopropanoate] | 0 | –
COC(=O)CCCC(=O)Nc1ccc2c3c(n(CCCNC(=O)OC(C)(C)C)c(=O)c2c1)-c1ccccc1C3=O [Compound 20 of (B), Methyl 5-[(6-(3-((tert-Butoxycarbonyl)amino)propyl)-5,11-dioxo-6,11-dihydro-5H-indeno[1,2-c]isoquinolin-3-yl)amino]-5-oxopentanoate] | 0 | IC50 (recombinant human Tdp1): > 111 µM
COC(=O)CC(=O)Nc1ccc2c3c(n(CCCN)c(=O)c2c1)-c1ccccc1C3=O [Compound 23 of (B), Methyl 3-[(6-(3-Aminopropyl)-5,11-dioxo-6,11-dihydro-5H-indeno[1,2-c]isoquinolin-3-yl)amino]-3-oxopropanoate] | – | IC50 [1]: 1.86 µM
COc1ccc2c(c1)-c1c(c3ccc([N+](=O)[O-])cc3c(=O)n1CCCN=[N+]=[N-])C2=O [Compound 50 of (B), 6-(3-Azidopropyl)-5,6-dihydro-8-methoxy-3-nitro-5,11-dioxo-11H-indeno[1,2-c]isoquinoline] | + | Tdp1 inhibitory activity (in words) (recombinant human Tdp1): very weak or inactive

From patent publication US9402842B2, “Synthesis and use of dual tyrosyl-DNA phosphodiesterase I (Tdp1)—topoisomerase I (Top1) inhibitors” (Purdue Research Foundation, priority 2012, dated 2016)
